How the values were obtained:
[1] = tested on: Striatum; experiment: Biodistribution in Sprague-Dawley rat striatum at 14.8 to 18.5 MBq, iv treated with MP-10 for 5 mins prior to compound administration measured at 30 mins post-injection by gamma counting analysis; format: ADME, organism-based; conditions: in vivo, 0.5 h
[2] = tested on: Lung; experiment: Biodistribution in Sprague-Dawley rat lung at 14.8 to 18.5 MBq, iv measured at 60 mins post-injection by gamma counting analysis; format: ADME, organism-based; conditions: in vivo, 1 h
[3] = Biodistribution in cynomolgus monkey striatum at 260 to 370 MBq, iv measured at 30 mins post-injection by microPET analysis; format: ADME, organism-based, Macaca fascicularis; conditions: in vivo, 0.5 h
[4] = tested on: Muscle tissue; experiment: Biodistribution in Sprague-Dawley rat muscle at 14.8 to 18.5 MBq, iv measured at 30 mins post-injection by gamma counting analysis; format: ADME, organism-based; conditions: in vivo, 0.5 h
[5] = Drug metabolism in iv dosed cynomolgus monkey plasma assessed as compound remaining measured at 15 mins post-injection by HPLC analysis; format: ADME, organism-based, Macaca fascicularis; conditions: read-out: Stability
[6] = Drug metabolism in iv dosed cynomolgus monkey plasma assessed as compound remaining measured at 2 mins post-injection by HPLC analysis; format: ADME, organism-based, Macaca fascicularis; conditions: read-out: Stability
[7] = tested on: Nucleic Acid; experiment: Ratio of drug level in striatum to cerebellum in Sprague-Dawley rat at 14.8 to 18.5 MBq, iv measured at 60 mins post-injection by gamma counting analysis; format: ADME, organism-based; conditions: in vivo, 1 h
[8] = tested on: Kidney; experiment: Biodistribution in Sprague-Dawley rat kidney at 14.8 to 18.5 MBq, iv treated with MP-10 for 5 mins prior to compound administration measured at 30 mins post-injection by gamma counting analysis; format: ADME, organism-based; conditions: in vivo, 0.5 h
[9] = tested on: Plasma; experiment: Drug recovery in iv dosed cynomolgus monkey plasma measured at 30 mins post-injection by HPLC analysis; format: ADME, organism-based, Macaca fascicularis; conditions: in vivo, 0.5 h
[10] = tested on: Plasma; experiment: Drug metabolism in iv dosed cynomolgus monkey plasma assessed as retention time of hydrophilic metabolite by HPLC analysis; format: ADME, organism-based, Macaca fascicularis; conditions: in vivo
[11] = tested on: Occipital cortex; experiment: Biodistribution in cynomolgus monkey occipital cortex at 260 to 370 MBq, iv measured at 20 to 100 mins post-injection by microPET analysis; format: ADME, organism-based, Macaca fascicularis; conditions: in vivo
[12] = tested on: Nucleic Acid; experiment: Ratio of drug level in striatum to cerebellum in cynomolgus monkey at 260 to 370 MBq, iv measured at 30 mins post-injection by microPET analysis; format: ADME, organism-based, Macaca fascicularis; conditions: in vivo, 0.5 h
[13] = Drug recovery in iv dosed cynomolgus monkey arterial blood assessed as radiometabolite level measured at 60 mins post-injection by HPLC analysis; format: ADME, organism-based, Macaca fascicularis; conditions: in vivo, 1 h
[14] = Biodistribution in cynomolgus monkey cerebellum at 260 to 370 MBq, iv measured at 20 to 100 mins post-injection by microPET analysis; format: ADME, organism-based, Macaca fascicularis; conditions: in vivo
[15] = tested on: Brain; experiment: Biodistribution in cynomolgus monkey middle brain at 260 to 370 MBq, iv measured at 20 to 100 mins post-injection by microPET analysis; format: ADME, organism-based, Macaca fascicularis; conditions: in vivo
[16] = tested on: Brain; experiment: Biodistribution in Sprague-Dawley rat brain at 14.8 to 18.5 MBq, iv measured at 60 mins post-injection by gamma counting analysis; format: ADME, organism-based; conditions: in vivo, 1 h
[17] = tested on: Kidney; experiment: Biodistribution in Sprague-Dawley rat kidney at 14.8 to 18.5 MBq, iv measured at 30 mins post-injection by gamma counting analysis; format: ADME, organism-based; conditions: in vivo, 0.5 h
[18] = Drug recovery in iv dosed cynomolgus monkey arterial blood measured at 60 mins post-injection by HPLC analysis; format: ADME, organism-based, Macaca fascicularis; conditions: in vivo, 1 h
[19] = tested on: Plasma; experiment: Metabolic stability in iv dosed cynomolgus monkey plasma protein pellet under deproteinated condition assessed as compound remaining measured at 5 to 60 mins by HPLC analysis; format: ADME, organism-based, Macaca fascicularis; conditions: in vivo
[20] = tested on: Liver; experiment: Biodistribution in Sprague-Dawley rat liver at 14.8 to 18.5 MBq, iv measured at 60 mins post-injection by gamma counting analysis; format: ADME, organism-based; conditions: in vivo, 1 h
[21] = tested on: Lung; experiment: Biodistribution in Sprague-Dawley rat lung at 14.8 to 18.5 MBq, iv treated with MP-10 for 5 mins prior to compound administration measured at 30 mins post-injection by gamma counting analysis; format: ADME, organism-based; conditions: in vivo, 0.5 h
[22] = tested on: Nucleic Acid; experiment: Ratio of drug level in striatum to cerebellum in cynomolgus monkey at 260 to 370 MBq, iv measured at 80 mins post-injection by microPET analysis; format: ADME, organism-based, Macaca fascicularis; conditions: in vivo
[23] = tested on: Blood; experiment: Biodistribution in Sprague-Dawley rat blood at 14.8 to 18.5 MBq, iv measured at 60 mins post-injection by gamma counting analysis; format: ADME, organism-based; conditions: in vivo, 1 h
[24] = tested on: Rattus norvegicus; experiment: Biodistribution in Sprague-Dawley rat fat at 14.8 to 18.5 MBq, iv measured at 60 mins post-injection by gamma counting analysis; format: ADME, organism-based, Adipose tissue; conditions: in vivo, 1 h
[25] = tested on: Nucleic Acid; experiment: Ratio of drug level in striatum to cerebellum in cynomolgus monkey at 260 to 370 MBq, iv measured at 25 mins post-injection by microPET analysis; format: ADME, organism-based, Macaca fascicularis; conditions: in vivo
[26] = Drug metabolism in iv dosed cynomolgus monkey plasma assessed as compound remaining measured at 30 mins post-injection by HPLC analysis; format: ADME, organism-based, Macaca fascicularis; conditions: read-out: Stability
[27] = Drug metabolism in iv dosed cynomolgus monkey plasma measured at 60 mins post-injection by HPLC analysis; format: ADME, organism-based, Macaca fascicularis; conditions: read-out: Drug metabolism
[28] = tested on: Plasma; experiment: Drug metabolism in iv dosed cynomolgus monkey plasma assessed as compound remaining by HPLC analysis; format: ADME, organism-based, Macaca fascicularis; conditions: in vivo
[29] = Biodistribution in cynomolgus monkey striatum at 260 to 370 MBq, iv measured at 25 mins post-injection by microPET analysis; format: ADME, organism-based, Macaca fascicularis; conditions: in vivo
[30] = Drug metabolism in iv dosed cynomolgus monkey plasma assessed as compound remaining measured at 60 mins post-injection by HPLC analysis; format: ADME, organism-based, Macaca fascicularis; conditions: read-out: Stability

SMILES	Drug uptake [1]	Drug uptake [2]	Drug uptake [4]	remaining at 0.25 h [5]	Ratio [7]	Drug uptake [8]	Retention_time [10]	Drug uptake [11]	Drug uptake [14]	Drug uptake [15]	Drug uptake [16]	Drug uptake [17]	Stability [19]	Drug uptake [20]	Drug uptake [21]	Drug uptake [23]	Drug uptake [24]	other results
Cn1cc(-c2ccncc2)c(-c2ccc(OCc3nc4ccccc4cc3O[11CH3])cc2)n1	0.294 % ID/g	0.299 % ID/g	0.244 % ID/g	87%	6	1.523 % ID/g	3 min	Active	Active	Active	0.095 % ID/g	1.647 % ID/g	5%	6.398 % ID/g	0.404 % ID/g	0.275 % ID/g	0.5 % ID/g	SUV [3]: 1.8; remaining at 2 min [6]: 97%; Drug recovery [9]: 82%; Ratio [12]: 3.5; Drug recovery [13]: 30%; Drug recovery [18]: 65%; Ratio [22]: 4.5
Cn1cc(-c2ccncc2)c(-c2ccc(OCc3cc(O[11CH3])c4ccccc4n3)cc2)n1	0.175 % ID/g	0.163 % ID/g	0.133 % ID/g	75%	4.5	1.072 % ID/g	3 min	Active	Active	Active	0.057 % ID/g	1.294 % ID/g	5%	8.941 % ID/g	0.362 % ID/g	0.152 % ID/g	0.278 % ID/g	Ratio [25]: 2.7; remaining at 0.5 h [26]: 60%; metabolised at 1 h [27]: 42%; Stability [28]: 85%; Drug uptake [29]: Active; remaining at 1 h [30]: 42%

Reference: ChEMBL document CHEMBL3259797, “Radiosyntheses and in vivo evaluation of carbon-11 PET tracers for PDE10A in the brain of rodent and nonhuman primate” (Bioorg Med Chem, 2014)
